Source: patent US7906486B2, “Method of treating or preventing tissue deterioration, injury or damage due to disease of mucosa” (SciClone Pharmaceuticals, Inc., priority 2007, dated 2011)
Where “and” joins values, the source holds several entries; their conditions need not be identical. Equal entries are not always repeated.

Tests used:
[1] = Weights and survival (Example 1, SCI-01); format: in vivo, Syrian Golden Hamsters
Description: All animals were weighed daily and their survival recorded, in order to assess possible differences in animal weight among treatment groups as an indication for mucositis severity and/or possible toxicity resulting from the treatments.
The mean daily percent weight change data was evaluated. The saline (PBS) treated control hamsters gained an average of 70.4% of their starting weight during the study. Hamsters in the group receiving SCV-07 at 1 ug/kg on days −1 to 16 gained an average of 68.4% of their starting weight during the study. Hamsters in the group receiving SCV-07 at 10 ug/kg on days −1 to 16 gained an average of 70.3% of their starting weight during the study. Hamsters in the group receiving SCV-07 at 100 ug/kg on days −1 to 16 gained an average of 82.0% of their starting weight during the study. The significance of these differences was evaluated by calculating the area-under-the-curve (AUC) for the weight gain of each animal, and then comparing the different treatment groups using a One-Way ANOVA test.

spleen lymphocytes = conditions: cited from earlier work
[2] = system: oral mucositis induced by cis-platin 5 mg/kg and radiation 35 Gy (left cheek pouch); test: Oral mucositis induced by a combination of cisplatin and acute radiation in hamsters, mucositis scoring (Example 4, SCI-04); format: in vivo, Syrian Golden Hamsters; parameters: key: 0: Pouch completely healthy. No erythema or vasodilation.; 1: Light to severe erythema and vasodilation. No erosion of mucosa.; 2: Severe erythema and vasodilation. Erosion of superficial aspects of mucosa leaving denuded areas. Decreased stippling of mucosa.; 3: Formation of off-white ulcers in one or more places. Ulcers may have a yellow/gray due to pseudomembrane. Cumulative size of ulcers should equal about ¼ of the pouch. Severe erythema and vasodilation.; 4: Cumulative seize of ulcers should equal about ½ of the pouch. Loss of pliability. Severe erythema and vasodilation.; 5: Virtually all of pouch is ulcerated. Loss of pliability (pouch can only partially be extracted from mouth); conditions: Group 2 (SCV-07 10 μg/kg, day -1 to day 20), individual animal scores, two scores per animal
Description: Forty Golden Syrian hamsters were prospectively randomized into four equally sized groups. Mucositis was induced on the left cheek pouch mucosa of golden Syrian hamsters by a single dose of cis-platin at 5 mg/kg given on day −1, and a single dose of radiation administered on day 0 at a dose of 35Gy. Beginning on day −1 and continuing once daily until day 20, SCV-07 was given by sub-cutaneous injection at doses of 10 μg/kg, 100 μg/kg or 1 mg/kg in a volume of 100 μL. Animals' activity and weight were evaluated daily. Beginning on day 6 and continuing on alternate days for the duration of the study, oral mucositis was evaluated using a standard scoring six point scale. The number of days of ulcerative mucositis was evaluated using a Chi-squared test of scores of ≧3 throughout the study, and the individual daily group scores were assessed with a Rank Sum Test.
The chemo-radiation model of oral mucositis in hamsters, developed by the Principal Investigator, has proven to be an accurate, efficient and cost-effective technique to provide a preliminary evaluation of anti-mucositis compounds. In this model, hamsters received a single dose of cis-platin at 5 mg/kg on day −1, followed by a single dose of radiation of 35 Gy to the left cheek pouch on day 0, rather than the single dose of 40 Gy on day 0 that is used in acute radiation studies. The course of mucositis in this model is very similar to the acute radiation model and results in peak mucositis scores approximately 16-18 days following radiation.
Hamsters received a single dose of cis-platin at 5 mg/kg on day −1 by intra-peritoneal injection, followed by a single dose of radiation of 35 Gy to the left cheek pouch on day 0. This was accomplished by anesthetizing the animals and everting the left buccal pouch, while protecting the rest of the animal's bodies with a lead shield. Test materials were given by sub-cutaneous injection once daily as detailed in Table 13. Mucositis was evaluated clinically starting on day 6, and continuing on alternate days until day 28. Test articles were given as from day −1 to day 20.
The grade of mucositis was scored, beginning day 6, and for every second day thereafter, through and including day 28. The effect on mucositis of each drug treatment compared to placebo was assessed according to the following parameters:
On each evaluation day, the number of animals with a blinded mucositis score of ≧3 in each drug treatment group was compared to the control group. Differences were compared on a cumulative basis and statistical significance was determined by chi-square analysis. Efficacy, in this analysis, is defined by a significant reduction in the number of days that a group of animals had ulcerations (scores 3) when compared to the control group.
For each evaluation day the scores of the control group were compared to those of the treated groups using non-parametric rank sum analysis. Treatment success was considered as a statistically significant lowering of scores in the treated group on 2 or more days from day 6 to day 28.
Forty (40) male Syrian Golden Hamsters were given an intraperitoneal injection of 5 mg/kg Cisplatin on day −1. On day 0 all animals were given an acute radiation dose of 35 Gy directed to their left buccal cheek pouch. This was accomplished by anesthetizing the animals and everting the left buccal pouch, while protecting the rest of the animals with a lead shield. Test materials were given by subcutaneous injection once daily as detailed in Table 13. Mucositis was evaluated clinically starting on Day 6, and continued on alternate days until day 28.
In this study, mucositis was induced with a combination of Cis-platin and radiation. Cis-platin was given as a single injection (IP) of 5 mg/kg on day −1. Radiation was given as a single focal dose of 35 Gy on day 0. Radiation was generated with a Philips 160 kVp (kilovolt potential) (18.75-ma) X-ray source at a focal distance of 30 cm, with a 3.0 mm hardened Al filtration system. […]

SMILES: N[C@H](CCC(=O)N[C@@H](Cc1c[nH]c2ccccc12)C(=O)O)C(=O)O [SCV-07, γ-D-glutamyl-L-tryptophan]
- average weight gain, % of starting weight during the study ([1]; 1 ug/kg on days -1 to 16): 68.4%
- average weight gain, % of starting weight during the study ([1]; 10 ug/kg on days -1 to 16): 70.3%
- average weight gain, % of starting weight during the study ([1]; 100 ug/kg on days -1 to 16): 82.0%
- IL-2 receptor expression by spleen lymphocytes (spleen lymphocytes; Con-A-induced): increases
- Con-A-induced interleukin-2 (IL-2) production (spleen lymphocytes; spleen lymphocytes): increases
- Mucositis score, day 10 ([2]; day 10): 1
- Mucositis score, day 12 ([2]; day 12): 3
- Mucositis score, day 14 ([2]; day 14): 3
- Mucositis score, day 16 ([2]; day 16): 3 (14×) and 4 (2×)
- Mucositis score, day 18 ([2]; day 18): 3 (12×) and 4 (2×)
- Mucositis score, day 20 ([2]; day 20): 3 (12×) and 1
- Mucositis score, day 22 ([2]; day 22): 1 (4×) and 3 (8×)
- Mucositis score, day 24 ([2]; day 24): 1 (5×) and 3 (4×)
- Mucositis score, day 26 ([2]; day 26): 1 (11×) and 3 (4×)
- Mucositis score, day 28 ([2]; day 28): 0 (7×) and 1 (8×) and 3 (2×)
